Results published in ChEMBL document CHEMBL1135111, “Antifungal sordarins. part 3: synthesis and structure-activity relationships of 2',3'-fused oxirane derivatives” (Bioorg Med Chem Lett, 2002).
≈ marks a conversion by molar mass, not a printed value.

Tests used:
Candida albicans [1] = assay: Compound was evaluated for antifungal activity as minimum cell growth inhibition against Candida albicans - 4711E; type: functional
Cryptococcus neoformans = assay: Compound was evaluated for antifungal activity as minimum cell growth inhibition against Cryptococcus neoformans - 2867; type: functional
Kluyveromyces marxianus = assay: Compound was evaluated for antifungal activity as minimum cell growth inhibition against Candida pseudotropicalis -2371; type: functional, candida pseudotrop
Candida tropicalis = assay: Compound was evaluated for antifungal activity as minimum cell growth inhibition against Candida tropicalis - 2808; type: functional
Candida albicans [2] = assay: Compound was evaluated for antifungal activity as minimum cell growth inhibition against Candida albicans - 2005; type: functional
Nakaseomyces glabratus = assay: Compound was evaluated for antifungal activity as minimum cell growth inhibition against Candida glabrata - 2375E; type: functional

Compound COC[C@H]1O[C@@H](OCC23C[C@@H]4[C@H](C)CC[C@H]4C4(C=O)CC2C=C(C(C)C)C34C(=O)O)[C@H]2O[C@H]2[C@@H]1OC (some centres not stated) has an MIC (Candida albicans [1]) of 0.5 µg/mL (≈ 0.991 µM), an MIC (Cryptococcus neoformans) of 16 µg/mL (≈ 31.7 µM) and an MIC (Kluyveromyces marxianus) of 0.25 µg/mL (≈ 0.495 µM). For the same compound, the MIC (Candida tropicalis) was 4 µg/mL (≈ 7.93 µM), the MIC (Candida albicans [2]) was 0.06 µg/mL (≈ 0.119 µM) and the MIC (Nakaseomyces glabratus) was 62 µg/mL (≈ 123 µM).
For CO[C@H]1[C@H]2O[C@H]2[C@H](OCC23C[C@@H]4[C@H](C)CC[C@H]4C4(C=O)CC2C=C(C(C)C)C34C(=O)O)O[C@@H]1C (some centres not stated), the MIC (Cryptococcus neoformans) was over 125 µg/mL, the MIC (Kluyveromyces marxianus) was 0.12 µg/mL (≈ 0.253 µM) and the MIC (Candida tropicalis) was 4 µg/mL (≈ 8.43 µM). The MIC (Candida albicans [2]) was 0.25 µg/mL (≈ 0.527 µM) and the MIC (Nakaseomyces glabratus) was 125 µg/mL (≈ 263 µM).
CO[C@H]1[C@@H]2S[C@@H]2[C@H](OCC23C[C@@H]4[C@H](C)CC[C@H]4C4(C=O)CC2C=C(C(C)C)C34C(=O)O)O[C@@H]1C (some centres not stated) showed an MIC (Candida albicans [1]) of 0.12 µg/mL (≈ 0.245 µM), an MIC (Cryptococcus neoformans) of over 125 µg/mL and an MIC (Kluyveromyces marxianus) of 0.008 µg/mL (≈ 0.0163 µM). It also gave an MIC (Candida tropicalis) of 0.5 µg/mL (≈ 1.02 µM), an MIC (Candida albicans [2]) of 0.03 µg/mL (≈ 0.0611 µM) and an MIC (Nakaseomyces glabratus) of 16 µg/mL (≈ 32.6 µM).
With CO[C@H]1[C@H]2O[C@H]2[C@@H](OCC23C[C@@H]4[C@H](C)CC[C@H]4C4(C=O)CC2C=C(C(C)C)C34C(=O)O)O[C@@H]1C (some centres not stated) the MIC (Candida albicans [1]) was 16 µg/mL (≈ 33.7 µM), the MIC (Cryptococcus neoformans) was 125 µg/mL (≈ 263 µM) and the MIC (Kluyveromyces marxianus) was 2 µg/mL (≈ 4.21 µM). For the same compound, the MIC (Candida tropicalis) was over 125 µg/mL, the MIC (Candida albicans [2]) was 4 µg/mL (≈ 8.43 µM) and the MIC (Nakaseomyces glabratus) was 31 µg/mL (≈ 65.3 µM).
With CO[C@H]1[C@@H]2O[C@@H]2[C@@H](OCC23C[C@@H]4[C@H](C)CC[C@H]4C4(C=O)CC2C=C(C(C)C)C34C(=O)O)O[C@@H]1C (some centres not stated) the MIC (Candida albicans [1]) was 8 µg/mL (≈ 16.9 µM), the MIC (Cryptococcus neoformans) was over 125 µg/mL and the MIC (Kluyveromyces marxianus) was 1 µg/mL (≈ 2.11 µM). For the same compound, the MIC (Candida tropicalis) was 31 µg/mL (≈ 65.3 µM), the MIC (Candida albicans [2]) was 4 µg/mL (≈ 8.43 µM) and the MIC (Nakaseomyces glabratus) was 31 µg/mL (≈ 65.3 µM).
With CO[C@H]1[C@@H]2O[C@@H]2[C@H](OCC23C[C@@H]4[C@H](C)CC[C@H]4C4(C=O)CC2C=C(C(C)C)C34C(=O)O)O[C@@H]1CO (some centres not stated) the MIC (Candida albicans [1]) was 16 µg/mL (≈ 32.6 µM), the MIC (Cryptococcus neoformans) was over 125 µg/mL and the MIC (Kluyveromyces marxianus) was 16 µg/mL (≈ 32.6 µM). The MIC (Candida tropicalis) was 31 µg/mL (≈ 63.2 µM), the MIC (Candida albicans [2]) was 4 µg/mL (≈ 8.15 µM) and the MIC (Nakaseomyces glabratus) was over 125 µg/mL.
With CO[C@H]1[C@@H]2O[C@@H]2[C@H](OCC23C[C@@H]4[C@H](C)CC[C@H]4C4(C=O)CC2C=C(C(C)C)C34C(=O)O)O[C@@H]1C (some centres not stated) the MIC (Candida albicans [1]) was 0.25 µg/mL (≈ 0.527 µM), the MIC (Cryptococcus neoformans) was 8 µg/mL (≈ 16.9 µM) and the MIC (Kluyveromyces marxianus) was 0.03 µg/mL (≈ 0.0632 µM). The MIC (Candida tropicalis) was 0.25 µg/mL (≈ 0.527 µM), the MIC (Candida albicans [2]) was 0.06 µg/mL (≈ 0.126 µM) and the MIC (Nakaseomyces glabratus) was 16 µg/mL (≈ 33.7 µM).
For C/C=C/C=C(/O[C@H]1[C@H](O)[C@H](OCC23C[C@@H]4[C@H](C)CC[C@H]4C4(C=O)CC2C=C(C(C)C)C34C(=O)O)O[C@H](C)[C@H]1O)C(=O)C(CC)CC (some centres not stated), the MIC (Candida albicans [1]) was 0.25 µg/mL (≈ 0.389 µM), the MIC (Cryptococcus neoformans) was 0.25 µg/mL (≈ 0.389 µM) and the MIC (Kluyveromyces marxianus) was 0.03 µg/mL (≈ 0.0467 µM). It also gave an MIC (Candida tropicalis) of 0.06 µg/mL (≈ 0.0933 µM), an MIC (Candida albicans [2]) of 0.015 µg/mL (≈ 0.0233 µM) and an MIC (Nakaseomyces glabratus) of over 125 µg/mL.
